Results as given in publication PMC9988422, “Usefulness of a humanized tricellular static transwell blood–brain barrier model as a microphysiological system for drug development applications. - A case study based on the benchmark evaluations of blood-brain barrier microphysiological system” (Regenerative Therapy, 2023).
Each block holds one compound with its values, some of them ahead of it.

Experiments:
[1] = target: T1, Glut1 (Homo sapiens, UniProt P11166); assay: Bidirectional transport assay in the human in vitro BBB model, Glut1 substrate; type: in vitro ADME; conditions: 2-NBDG 100 μg/ml
T1 construct: endogenous in cells; host or cells: HBMEC/ci18 co-cultured with HBPC/ci37 and HASTR/ci35 (transwell)
T1 sequence (P11166 1-492): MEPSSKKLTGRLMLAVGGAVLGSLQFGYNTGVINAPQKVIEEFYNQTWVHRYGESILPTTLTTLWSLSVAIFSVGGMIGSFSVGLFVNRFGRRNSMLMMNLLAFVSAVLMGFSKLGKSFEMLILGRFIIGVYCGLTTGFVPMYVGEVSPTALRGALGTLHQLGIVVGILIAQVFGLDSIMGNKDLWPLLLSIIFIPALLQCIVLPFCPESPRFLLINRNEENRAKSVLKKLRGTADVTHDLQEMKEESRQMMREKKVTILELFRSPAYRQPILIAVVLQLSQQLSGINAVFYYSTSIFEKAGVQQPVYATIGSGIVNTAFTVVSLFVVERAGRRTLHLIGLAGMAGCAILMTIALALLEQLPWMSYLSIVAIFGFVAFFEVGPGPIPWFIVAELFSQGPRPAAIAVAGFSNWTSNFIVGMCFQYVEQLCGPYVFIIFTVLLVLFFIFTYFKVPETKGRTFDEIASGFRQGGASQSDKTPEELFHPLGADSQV
Procedure: (§1) In vitro human BBB models were developed by combining three immortalized cell lines). Briefly, HBPC/ci37 cells were seeded on the bottom side of the collagen IV- and Fibronectin-coated polycarbonate membrane of a transwell insert (Millicell cell culture insert 24-well hanging inserts, 0.4 μm […]; Merck, Darmstadt, Germany) at a density of 1.0 × 10^4 cells/insert. The cells were then cultured for 1 day to allow them to attach firmly. HASTR/ci35 cells were seeded (5.0 × 10^4 cells/well) on collagen I-coated 24-well plates (Greiner Bio-one, Frickenhausen, Germany) and maintained in astrocyte culture medium. HBPC/ci37 cells were induced to differentiate by replacing the pericyte medium with pericyte differentiation medium, which was consisted of FBS- and blasticidin S-free pericyte medium; HASTR/ci35 cells were induced to differentiate by replacing the astrocyte culture medium with astrocyte differentiation medium, which was consisted of FBS- and blasticidin S-free astrocyte growth medium supplemented with 1 mM adenosine 3′,5′-cyclic monophosphate sodium salt monohydrate. After the differentiation media were added, both cell lines were cultured at 37 °C for 24 h. To start a coculture, HBMEC/ci18 cells were seeded on the inner side of the HBPC/ci37 cell culture insert at a density of 1.0 × 10^5 cells. […]

[2] = Permeability assay with permeable and nonpermeable compounds in the human in vitro BBB model; conditions: human
Procedure: as §1

[3] = test system: human in vitro BBB model (HBMEC/ci18, HBPC/ci37, HASTR/ci35); assay: as above
Procedure: as §1

Compound: O=[N+]([O-])c1ccc(N[C@H]2C(O)O[C@H](CO)[C@@H](O)[C@@H]2O)c2nonc12 (stereo partly shown) [2-NBDG]
Efflux Ratio Mean ([1]; mean of 4 independent experiments): 1.1 | Efflux Ratio (Pe (B to A)/Pe (A to B)) ([1]; single independent experiment): 1.01

Compound: Cn1c(=O)c2c(ncn2C)n(C)c1=O [caffeine]
Papp at 5 μM [2]: 1160 ± 492 ×10⁻⁶ cm/s

Pe value (permeability coefficient) [3]: 90.2 ± 23.1 × 10^−6 cm/s
Compound: Lucifer Yellow
